This note sets out measurements from US20130217664A1, “NOVEL COMPOUNDS USEFUL FOR THE TREATMENT OF DEGENERATIVE AND INFLAMMATORY DISEASES” (priority 2012, published 2013).

A word on the IC50: it is the concentration that inhibits the measured activity by half.

For experiment [1], the target named is T1, human JAK1 (Homo sapiens, UniProt P23458).
T1 construct: catalytic domain, amino acids 866-1154; catalog number PV4774; purchased Invitrogen PV4774
Put plainly: JAK1 inhibition assay (polyGT substrate / Ulight-JAK1 peptide). It counts as biochemical. The note with it: recombinant human JAK1 catalytic domain; polyGT or Ulight-JAK1 peptide assay. The method, boiled down: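 Signal scaled between vehicle and 10 μM staurosporine. Radiometric polyGT reactions ran 45 min at 30 °C, counted after phosphoric-acid stop. Ulight peptide reactions ran 60 min at room temperature, fluorescence read after adding Eu-PT66 detection mix with EDTA.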

For experiment [2], the target named is T2, human JAK2 (Homo sapiens, UniProt O60674).
T2 construct: catalytic domain (amino acids 808-1132; catalog number PV4210); GST; purchased Invitrogen PV4210
In words: JAK2 inhibition assay (polyGT substrate / Ulight-JAK1 peptide). It counts as biochemical. Particulars: recombinant human JAK2 catalytic domain; polyGT or Ulight-JAK1 peptide assay. The method, boiled down:
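Two JAK2 formats: a ^33P-ATP polyGT assay (1 μM cold ATP, 90 min, 30° C., cpm read-out) and a Ulight-JAK1 peptide assay read by Europium-anti-phosphotyrosine fluorescence after 60 min at room temperature.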

The target of experiment [3] is T3, human JAK3 (Homo sapiens, UniProt P52333).
T3 construct: catalytic domain (amino acids 781-1124; catalog number PV3855); purchased Invitrogen PV3855
Put plainly: JAK3 inhibition assay. The experiment is classed as biochemical. The note with it: recombinant human JAK3 catalytic domain; polyGT substrate. A digest of the protocol: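 Radiometric kinase assay: 0.5 ng JAK3 with 2.5 μg polyGT in Tris pH 7.5/MgCl2 buffer, 1 μM ATP plus 0.25 μCi 33P-γ-ATP, 1% DMSO, 45 min at 30 °C, stopped with phosphoric acid.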

The target in experiment [4] is T4, human TYK2 (Homo sapiens, UniProt P29597).
T4 construct: catalytic domain (amino acids 871-1187; catalog number 08-147); purchased Carna Biosciences 08-147
T4 sequence (P29597 871-1187): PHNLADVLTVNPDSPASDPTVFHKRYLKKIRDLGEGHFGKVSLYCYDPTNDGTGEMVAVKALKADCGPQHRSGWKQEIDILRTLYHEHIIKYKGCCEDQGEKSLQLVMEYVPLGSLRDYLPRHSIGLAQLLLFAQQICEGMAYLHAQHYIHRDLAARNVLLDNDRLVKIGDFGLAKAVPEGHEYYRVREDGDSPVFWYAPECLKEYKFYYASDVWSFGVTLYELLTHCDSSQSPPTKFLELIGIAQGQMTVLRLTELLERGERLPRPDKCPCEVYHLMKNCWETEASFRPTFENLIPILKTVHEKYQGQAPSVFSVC
In words: TYK2 inhibition assay. It counts as biochemical. The note with it: recombinant human TYK2 catalytic domain, polyGT substrate. The method, boiled down: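 Radiometric kinase reaction run 90 min at 30 °C, stopped with phosphoric acid, washed and scintillation-counted.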

In experiment [5] the test system is CTLL-2 cell line. In words: CTLL2 viability assay. The experiment is classed as cell-based. The note with it: Mus musculus, IL-2 dependent CTLL2 viability, 24 h, ATP-lite. An excerpt:
The protocol describes the methods to analyse the activity of compounds on their ability to sustain the IL2-dependent viability of CTLL2.
Final DMSO concentration was 0.1%.

The structures appear in SMILES notation.

T1 sequence (P23458 866-1154): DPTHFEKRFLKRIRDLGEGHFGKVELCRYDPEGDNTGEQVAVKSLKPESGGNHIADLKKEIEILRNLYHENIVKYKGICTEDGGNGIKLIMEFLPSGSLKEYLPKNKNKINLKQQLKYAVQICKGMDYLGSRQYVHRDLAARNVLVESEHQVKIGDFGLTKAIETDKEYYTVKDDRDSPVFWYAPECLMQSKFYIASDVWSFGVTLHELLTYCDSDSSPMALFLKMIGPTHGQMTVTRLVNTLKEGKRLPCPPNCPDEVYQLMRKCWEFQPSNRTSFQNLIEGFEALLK
T2 sequence (O60674 808-1132): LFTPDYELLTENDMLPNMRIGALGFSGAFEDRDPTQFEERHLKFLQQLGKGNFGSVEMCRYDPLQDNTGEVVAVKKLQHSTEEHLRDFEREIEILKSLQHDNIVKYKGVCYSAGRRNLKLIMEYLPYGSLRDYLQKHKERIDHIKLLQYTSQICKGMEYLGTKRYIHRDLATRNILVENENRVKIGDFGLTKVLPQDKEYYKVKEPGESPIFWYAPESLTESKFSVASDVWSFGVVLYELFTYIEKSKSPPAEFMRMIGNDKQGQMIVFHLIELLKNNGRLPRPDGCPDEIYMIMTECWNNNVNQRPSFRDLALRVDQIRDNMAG
T3 sequence (P52333 781-1124): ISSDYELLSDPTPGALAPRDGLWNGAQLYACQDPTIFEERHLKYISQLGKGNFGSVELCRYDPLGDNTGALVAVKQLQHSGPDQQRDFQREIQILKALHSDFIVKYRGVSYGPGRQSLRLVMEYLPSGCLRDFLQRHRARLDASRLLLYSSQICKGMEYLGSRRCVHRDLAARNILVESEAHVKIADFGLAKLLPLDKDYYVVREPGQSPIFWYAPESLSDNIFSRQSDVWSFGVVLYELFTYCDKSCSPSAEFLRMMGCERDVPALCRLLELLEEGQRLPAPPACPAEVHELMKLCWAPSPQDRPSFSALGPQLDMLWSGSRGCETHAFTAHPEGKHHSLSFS

For `CCc1cc(CN2CC3(COC3)C2)ccc1N(C)c1cc2c(cn1)ncn2C` [Compound 419, [2-Ethyl-4-(2-oxa-6-aza-spiro[3.3]hept-6-ylmethyl)-phenyl]-methyl-(1-methyl-1H-imidazo[4,5-c]pyridin-6-yl)-amine], the IC50 was 101 to 500 nM in experiment [1]; over 1000 nM in experiment [2]; over 1000 nM in experiment [3]; over 1000 nM in experiment [4]; over 1000 nM in experiment [5].
As to `CCc1cc(CN2CCC(S(C)(=O)=O)C2)ccc1N(C)c1cc2c(cn1)ncn2C` (stereo not drawn) [Compound 420, [2-Ethyl-4-(3-methanesulfonyl-pyrrolidin-1-ylmethyl)-phenyl]-methyl-(1-methyl-1H-imidazo[4,5-c]pyridin-6-yl)-amine], the half-maximal inhibitory concentration (IC50) was 0.01 to 100 nM in experiment [1]; 101 to 500 nM in experiment [2]; over 1000 nM in experiment [3]; 101 to 500 nM in experiment [4]; over 1000 nM in experiment [5].
`CCc1cc(CN2CCNC(=O)C2)ccc1N(C)c1cc2c(cn1)ncn2C` [Compound 421, 4-{3-Ethyl-4-[methyl-(1-methyl-1H-imidazo[4,5-c]pyridin-6-yl)-amino]-benzyl}-piperazin-2-one]: the IC50 in experiment [1] was 0.01 to 100 nM; in experiment [2], 101 to 500 nM; in experiment [3], 501 to 1000 nM; in experiment [4], 0.01 to 100 nM; in experiment [5], over 1000 nM.
In the case of `CCc1cc(CN2CCC(F)(F)CC2)ccc1N(C)c1cc2c(cn1)ncn2C` [Compound 422, [4-(4,4-Difluoro-piperidin-1-ylmethyl)-2-ethyl-phenyl]-methyl-(1-methyl-1H-imidazo[4,5-c]pyridin-6-yl)-amine], the IC50 in experiment [1] is 0.01 to 100 nM; in experiment [2], 501 to 1000 nM; in experiment [3] it was over 1000 nM; in experiment [4], 501 to 1000 nM; in experiment [5], over 1000 nM.
With `CCc1cc(CNS(N)(=O)=O)ccc1N(C)c1cc2c(cn1)ncn2C` [Compound 423, N-{3-Ethyl-4-[methyl-(1-methyl-1H-imidazo[4,5-c]pyridin-6-yl)-amino]-benzyl}-aminosulfonamide], the half-maximal inhibitory concentration (IC50) in experiment [1] is 0.01 to 100 nM; in experiment [2], 0.01 to 100 nM; in experiment [3], 0.01 to 100 nM; in experiment [4], 0.01 to 100 nM; in experiment [5] it was over 1000 nM.
As for `CCc1cc(CNS(=O)(=O)N2CC(F)(F)C2)ccc1N(C)c1cc2c(cn1)ncn2C` [Compound 424, 3,3-Difluoro-azetidine-1-sulfonic acid 3-ethyl-4-[methyl-(1-methyl-1H-imidazo[4,5-c]pyridin-6-yl)-amino]-benzylamide], the IC50 in experiment [1] was 0.01 to 100 nM; in experiment [2] it was 0.01 to 100 nM; in experiment [3] it was 101 to 500 nM; in experiment [4] it was 101 to 500 nM; in experiment [5], over 1000 nM.
As to `CCc1cc(CNS(=O)(=O)N2CCC(F)(F)C2)ccc1N(C)c1cc2c(cn1)ncn2C` [Compound 425, 3,3-Difluoro-pyrrolidine-1-sulfonic acid 3-ethyl-4-[methyl-(1-methyl-1H-imidazo[4,5-c]pyridin-6-yl)-amino]-benzylamide], the IC50 in experiment [1] was 0.01 to 100 nM; in experiment [2], 0.01 to 100 nM; in experiment [3], 101 to 500 nM; in experiment [4], 101 to 500 nM; in experiment [5] it was over 1000 nM.
In the case of `CCc1cc(CNS(=O)(=O)N2CCOCC2)ccc1N(C)c1cc2c(cn1)ncn2C` [Compound 426, Morpholine-4-sulfonic acid 3-ethyl-4-[methyl-(1-methyl-1H-imidazo[4,5-c]pyridin-6-yl)-amino]-benzylamide], the concentration for half-maximal inhibition (IC50) in experiment [1] was 0.01 to 100 nM; in experiment [2], 0.01 to 100 nM; in experiment [3] it was 101 to 500 nM; in experiment [4], 101 to 500 nM; in experiment [5], over 1000 nM.
For the compound `CCc1cc(C2CCCCC2)ncc1N(C)c1cc2c(cn1)ncn2C` [Compound 432, (6-Cyclohexyl-4-ethyl-pyridin-3-yl)-methyl-(1-methyl-1H-imidazo[4,5-c]pyridin-6-yl)-amine], the IC50 in experiment [1] was 0.01 to 100 nM; in experiment [2], 101 to 500 nM; in experiment [3], over 1000 nM; in experiment [4], 101 to 500 nM; in experiment [5], over 1000 nM.
